ChEMBL document CHEMBL1153018, “Synthesis of pochoxime prodrugs as potent HSP90 inhibitors” (Bioorg Med Chem Lett, 2009)
Active and inactive are the calls of the source. The rule behind the calls is not given here.

Legend:
[1] = Aqueous solubility of the compound; assay type: physicochemical
[2] = target: Heat shock protein HSP 90-alpha (Homo sapiens) (UniProt P07900); assay: Binding affinity to human HSP90alpha at < 10 uM
[3] = Drug level in mouse liver at 4 mg/kg, iv; assay type: ADME, organism-based; parameters: dose 4 mg/kg, route intravenous
Liver = assay: Drug level in mouse liver at 30 mg/kg, po; assay type: ADME, organism-based; parameters: dose 30 mg/kg, route oral; conditions: in vivo
Mus musculus [4] = assay: Hepatotoxicity in ICR-SCID mouse liver assessed as bilirubin level at 75 mg/kg administered 3 times per week for 4 weeks measured after 24 hrs of last dose relative to untreated control; assay type: toxicity, organism-based; parameters: dose 75 mg/kg; conditions: in vivo
[5] = Growth inhibition of human tarceva and iressa-resistant HCC827 cells assessed as ATP level after 4 days; assay type: functional; conditions: HCC827, 96 h
Mus musculus [6] = assay: Hepatotoxicity in ICR-SCID mouse liver assessed as alkaline phosphatase level at 75 mg/kg administered 3 times per week for 4 weeks measured after 24 hrs of last dose relative to untreated control; assay type: toxicity, organism-based; parameters: dose 75 mg/kg; conditions: in vivo
Mus musculus [7] = assay: Hepatotoxicity in ICR-SCID mouse liver assessed as alanine aminotransferase level at 100 mg/kg administered 3 times per week for 4 weeks measured after 24 hrs of last dose relative to untreated control; assay type: toxicity, organism-based; parameters: dose 100 mg/kg; conditions: in vivo
Mus musculus [8] = assay: Toxicity in ICR-SCID mouse heart assessed as cholesterol level at 75 mg/kg administered 3 times per week for 4 weeks measured after 24 hrs of last dose relative to untreated control; assay type: organism-based; parameters: dose 75 mg/kg; conditions: in vivo
Mus musculus [9] = assay: Toxicity in ICR-SCID mouse kidney assessed as creatinine level at 50 mg/kg administered 3 times per week for 4 weeks measured after 24 hrs of last dose relative to untreated control; assay type: organism-based; parameters: dose 50 mg/kg; conditions: in vivo
Mus musculus [10] = assay: Hepatotoxicity in ICR-SCID mouse liver assessed as aspartate aminotransferase level at 75 mg/kg administered 3 times per week for 4 weeks measured after 24 hrs of last dose relative to untreated control; assay type: toxicity, organism-based; parameters: dose 75 mg/kg; conditions: in vivo
Mus musculus [11] = assay: Hepatotoxicity in ICR-SCID mouse liver assessed as alanine aminotransferase level at 50 mg/kg administered 3 times per week for 4 weeks measured after 24 hrs of last dose relative to untreated control; assay type: toxicity, organism-based; parameters: dose 50 mg/kg; conditions: in vivo
MV4-11 = assay: Growth inhibition of human MV4-11 cells assessed as ATP level after 4 days; assay type: functional; conditions: MV4-11, 96 h
K562 = assay: Growth inhibition of human K562 cells assessed as ATP level after 4 days; assay type: functional; conditions: K562, 96 h
Mus musculus [12] = assay: Hepatotoxicity in ICR-SCID mouse liver assessed as alanine aminotransferase level at 75 mg/kg administered 3 times per week for 4 weeks measured after 24 hrs of last dose relative to untreated control; assay type: toxicity, organism-based; parameters: dose 75 mg/kg; conditions: in vivo
Mus musculus [13] = assay: Toxicity in ICR-SCID mouse kidney assessed as creatinine level at 75 mg/kg administered 3 times per week for 4 weeks measured after 24 hrs of last dose relative to untreated control; assay type: organism-based; parameters: dose 75 mg/kg; conditions: in vivo
Mus musculus [14] = assay: Hepatotoxicity in ICR-SCID mouse liver assessed as aspartate aminotransferase level at 50 mg/kg administered 3 times per week for 4 weeks measured after 24 hrs of last dose relative to untreated control; assay type: toxicity, organism-based; parameters: dose 50 mg/kg; conditions: in vivo
Mus musculus [15] = assay: Hepatotoxicity in ICR-SCID mouse liver assessed as aspartate aminotransferase level at 100 mg/kg administered 3 times per week for 4 weeks measured after 24 hrs of last dose relative to untreated control; assay type: toxicity, organism-based; parameters: dose 100 mg/kg; conditions: in vivo
Mus musculus [16] = assay: Hepatotoxicity in ICR-SCID mouse liver assessed as alkaline phosphatase level at 100 mg/kg administered 3 times per week for 4 weeks measured after 24 hrs of last dose relative to untreated control; assay type: toxicity, organism-based; parameters: dose 100 mg/kg; conditions: in vivo
Mus musculus [17] = assay: Toxicity in ICR-SCID mouse heart assessed as cholesterol level at 50 mg/kg administered 3 times per week for 4 weeks measured after 24 hrs of last dose relative to untreated control; assay type: organism-based; parameters: dose 50 mg/kg; conditions: in vivo
NCI-N87 = assay: Growth inhibition of human NCI-N87 cells assessed as ATP level after 4 days; assay type: functional; conditions: NCI-N87, 96 h
BT-474 = assay: Growth inhibition of human BT474 cells assessed as ATP level after 4 days; assay type: functional; conditions: BT-474, 96 h
Mus musculus [18] = assay: Toxicity in ICR-SCID mouse heart assessed as […] level at 75 mg/kg administered 3 times per week for 4 weeks measured after 24 hrs of last dose relative to untreated control; assay type: organism-based; parameters: dose 75 mg/kg; conditions: in vivo
Mus musculus [19] = assay: Hepatotoxicity in ICR-SCID mouse liver assessed as alkaline phosphatase level at 50 mg/kg administered 3 times per week for 4 weeks measured after 24 hrs of last dose relative to untreated control; assay type: toxicity, organism-based; parameters: dose 50 mg/kg; conditions: in vivo
Mus musculus [20] = assay: Toxicity in ICR-SCID mouse heart assessed as […] level at 50 mg/kg administered 3 times per week for 4 weeks measured after 24 hrs of last dose relative to untreated control; assay type: organism-based; parameters: dose 50 mg/kg; conditions: in vivo
MDA-MB-468 = assay: Growth inhibition of human MDA-MB-468 cells assessed as ATP level after 4 days; assay type: functional; conditions: MDA-MB-468, 96 h
Mus musculus [21] = assay: Hepatotoxicity in ICR-SCID mouse liver assessed as bilirubin level at 50 mg/kg administered 3 times per week for 4 weeks measured after 24 hrs of last dose relative to untreated control; assay type: toxicity, organism-based; parameters: dose 50 mg/kg; conditions: in vivo
Mus musculus [22] = assay: Hepatotoxicity in ICR-SCID mouse liver assessed as bilirubin level at 100 mg/kg administered 3 times per week for 4 weeks measured after 24 hrs of last dose relative to untreated control; assay type: toxicity, organism-based; parameters: dose 100 mg/kg; conditions: in vivo
NCI-H1975 = assay: Growth inhibition of human tarceva and iressa-resistant NCI-H1975 cells assessed as ATP level after 4 days; assay type: functional; conditions: NCI-H1975, 96 h
[23] = target: Heat shock protein HSP 90-alpha (Homo sapiens) (UniProt P07900)
PC-3 = assay: Growth inhibition of human PC3 cells assessed as ATP level after 4 days; assay type: functional, cell-based
[24] = Growth inhibition of human MDA231 cells assessed as ATP level after 4 days; assay type: functional; conditions: MDA-MB-231, 96 h
NSCLC = assay: Growth inhibition of human NSCLC cells assessed as ATP level after 4 days; assay type: functional, cell-based
Homo sapiens = organism: Homo sapiens; assay: Growth inhibition of human tarceva and iressa-resistant […] cells assessed as ATP level after 4 days; assay type: functional
HCT-116 = assay: Growth inhibition of human HCT116 cells assessed as ATP level after 4 days; assay type: functional; conditions: HCT-116, 96 h

SMILES	solubility [1] [mg/mL]	Activity [2]	GI50 (MV4-11) [nM]	GI50 (K562) [nM]	GI50 (BT-474) [nM]	GI50 (MDA-MB-468) [nM]	GI50 [23] [nM]	GI50 (NCI-N87) [nM]	further results
C[C@@H]1C/C=C/CC/C=C/C(=N/OCC(=O)N2CCCCC2)Cc2cc(OP(=O)([O-])[O-])cc(OP(=O)([O-])[O-])c2C(=O)O1.[Na+].[Na+].[Na+].[Na+]	> 100	inactive							Cmax [3]: 3840 ng/g; Drug uptake (Liver): 12469 ng/g
C=CCNC1=C2C[C@@H](C)C[C@H](OC)[C@H](O)[C@@H](C)/C=C(\C)[C@H](OC(N)=O)[C@@H](OC)/C=C\C=C(/C)C(=O)NC(=CC1=O)C2=O (stereo in doubt) [TANESPIMYCIN]			11	48	5	780		1	Activity (Mus musculus [4]): 0.25 mg/dL; GI50 [5]: 56 nM; Activity (Mus musculus [6]): 143.3 U/L; Activity (Mus musculus [7]): 11134 U/L; Activity (Mus musculus [8]): 97.5 mg/dL; Activity (Mus musculus [9]): 0.2 mg/dL; Activity (Mus musculus [10]): 1058.3 U/L; Activity (Mus musculus [11]): 175.3 U/L; Activity (Mus musculus [12]): 755.7 U/L; Activity (Mus musculus [13]): 0.2 mg/dL; Activity (Mus musculus [14]): 216 U/L; Activity (Mus musculus [15]): 10611.3 U/L; Activity (Mus musculus [16]): 131.3 U/L; Activity (Mus musculus [17]): 105.3 mg/dL; Activity (Mus musculus [18]): 166 U/L; Activity (Mus musculus [19]): 128.3 U/L; Activity (Mus musculus [20]): 64.7 U/L; Activity (Mus musculus [21]): 0.2 mg/dL; Activity (Mus musculus [22]): 1.1 mg/dL; GI50 (NCI-H1975): 35 nM
O=C1OCC/C=C/CC/C=C/C(=N/OCC(=O)N2CCCCC2)Cc2c(Cl)c(OP(=O)([O-])[O-])cc(O)c21.[Na+].[Na+]	≥ 80	inactive			14	37	> 10000	19	
O=C1OCC/C=C/CC/C=C/C(=N/OCC(=O)N2CCCCC2)Cc2cc(OP(=O)([O-])[O-])cc(O)c21.[Na+].[Na+]	≥ 80	inactive							

Second part, led by results:

solubility [1] [mg/mL]	Activity [2]	GI50 (MV4-11) [nM]	GI50 (K562) [nM]	GI50 (BT-474) [nM]	GI50 (MDA-MB-468) [nM]	GI50 [23] [nM]	SMILES	GI50 (NCI-N87) [nM]	further results
≥ 80	inactive						O=C1OCC/C=C/CC/C=C/C(=N/OCC(=O)N2CCCCC2)Cc2cc(OCOP(=O)([O-])[O-])cc(O)c21.[Na+].[Na+]		
≥ 80	inactive						O=C1OCC/C=C/CC/C=C/C(=N/OCC(=O)N2CCCCC2)Cc2c(Cl)c(O)cc(OP(=O)([O-])[O-])c21.[Na+].[Na+]		
		3	7	6	6	18	C[C@@H]1C/C=C/CC/C=C/C(=N/OCC(=O)N2CCCCC2)Cc2cc(O)cc(O)c2C(=O)O1 [POCHOXIME C]	2	Activity (PC-3): Active; GI50 [24]: 6 nM; Activity (NSCLC): Active; Activity (Homo sapiens): Active
≥ 80	inactive						C[C@@H]1C/C=C/CC/C=C/C(=N/OCC(=O)N2CCCCC2)Cc2cc(OP(=O)([O-])[O-])cc(O)c2C(=O)O1.[Na+].[Na+]		
		2	4	2	2	15	O=C1OCC/C=C/CC/C=C/C(=N/OCC(=O)N2CCCCC2)Cc2cc(O)cc(O)c21 [POCHOXIME B]	1	Activity (PC-3): Active; GI50 [24]: 2 nM; GI50 (HCT-116): 11 nM; Activity (NSCLC): Active; Activity (Homo sapiens): Active
